The text below walks through data of US20250025443A1, “COMPOUNDS AND METHODS FOR TREATING CORONA VIRUSES” (CLEAR CREEK BIO, INC., priority 2021, published 2025).

Broadly, the IC50 is the concentration that inhibits the measured activity by half.

One assay concerns the target SARS-CoV-2 Papain-Like Protease (PLpro) (Severe acute respiratory syndrome coronavirus 2 (2019-nCoV) (SARS-CoV-2), UniProt P0DTD1). The assay can be described thus: biochemical. The note with it: PLpro enzymatic fluorescence assay; class symbols; read-out: PLpro IC50.
Take `Cc1ccc(OCC2CN(C)C2)cc1C(=O)NC1(c2cccc3ccccc23)CC1` [Compound 427, 2-Methyl-5-((1-methylazetidin-3-yl)methoxy)-N-(1-(naphthalen-1-yl)cyclopropyl)benzamide]: the IC50 was below 100 nM.
The same measure, in the same setting: for `Cc1ccc(OCC2CCN2C)cc1C(=O)NC1(c2cccc3ccc(F)cc23)CC1` (stereo not shown) [Compound 444, N-(1-(7-Fluoronaphthalen-1-yl)cyclopropyl)-2-methyl-5-((1-methylazetidin-2-yl)methoxy)benzamide] the value was below 100 nM; for `Cc1ccc(OCC(C)N)cc1C(=O)NC1(c2cccc3cnccc23)CC1` (stereo not shown) [Compound 446, 5-(2-Aminopropoxy)-N-(1-(isoquinolin-5-yl)cyclopropyl)-2-methylbenzamide], below 100 nM.
Still for that read-out and setting: then `Cc1ccc(OCC2CCN2C)cc1C(=O)NC1(c2nccc3ccccc23)CC1` (stereo not shown) [Compound 454, N-(1-(Isoquinolin-1-yl)cyclopropyl)-2-methyl-5-((1-methylazetidin-2-yl)methoxy)benzamide], with 100 to 1000 nM; and `COc1cc2c(C3(NC(=O)c4cc(OCC5CCN5C)ccc4C)CC3)cccc2cn1` (stereo not shown) [Compound 456, N-(1-(3-Methoxyisoquinolin-5-yl)cyclopropyl)-2-methyl-5-((1-methylazetidin-2-yl)methoxy)benzamide], with below 100 nM; and `Cc1ccc(OCC2CCN2C)cc1C(=O)NC1(c2c(C)ccc3ccccc23)CC1` (stereo not shown) [Compound 458, 2-Methyl-5-((1-methylazetidin-2-yl)methoxy)-N-(1-(2-methylnaphthalen-1-yl)cyclopropyl)benzamide], with below 100 nM.
Still for that read-out and setting: for `Cc1ccc(N2CC(N)C2)cc1C(=O)NC1(c2cccc3ccccc23)CC1` [Compound 464, 5-(3-Aminoazetidin-1-yl)-2-methyl-N-(1-(naphthalen-1-yl)cyclopropyl)benzamide] the value was below 100 nM.

Still in this assay, the particulars now being: SARS-CoV-2 PLpro enzymatic fluorescence assay; read-out: PLpro IC50.
For the compound `CC[S+]([O-])c1cc(C2(NC(=O)c3cc(OCCN(C)C)ccc3C)CC2)c2ccccc2c1` (stereo not shown) [Compound 423, 5-(2-(Dimethylamino)ethoxy)-N-(1-(3-(ethylsulfinyl)naphthalen-1-yl)cyclopropyl)-2-methylbenzamide], the IC50 is below 100 nM.
Same read-out and setting: for `Cc1ccc(OCCNS(C)(=O)=O)cc1C(=O)NC1(c2cccc3ccccc23)CC1` [Compound 424, 2-Methyl-5-(2-(methylsulfonamido)ethoxy)-N-(1-(naphthalen-1-yl)cyclopropyl)benzamide] the value was 100 to 1000 nM; for `CC(=O)NCCOc1ccc(C)c(C(=O)NC2(c3cccc4ccccc34)CC2)c1` [Compound 425, 5-(2-Acetamidoethoxy)-2-methyl-N-(1-(naphthalen-1-yl)cyclopropyl)benzamide], 100 to 1000 nM; for `CNCc1nc2cc(C)c(C(=O)NC3(c4cccc5ccccc45)CC3)cc2o1` [Compound 426, 5-Methyl-2-((methylamino)methyl)-N-(1-(naphthalen-1-yl)cyclopropyl)benzo[d]oxazole-6-carboxamide], 100 to 1000 nM.
As to `COC(=O)CCc1ccc(C)c(C(=O)NC2(c3cccc4ccccc34)CC2)c1` [Compound 431, Methyl 3-(4-methyl-3-((1-(naphthalen-1-yl)cyclopropyl)carbamoyl)phenyl) propanoate], the IC50 lay within 100 to 1000 nM.
Consider `Cc1ccc(OCC2CCN2C)cc1C(=O)NC1(c2cccc3c2OCCO3)CC1` (stereo not shown) [Compound 432, N-(1-(2,3-Dihydrobenzo[b][1,4]dioxin-5-yl)cyclopropyl)-2-methyl-5-((1-methylazetidin-2-yl)methoxy)benzamide], for which the IC50 fell in the range of 100 to 1000 nM.
For `Cc1ccc(OCC2CCN2C)cc1C(=O)NC1(c2cc(O)cc3ccccc23)CC1` (stereo not shown) [Compound 433, N-(1-(3-Hydroxynaphthalen-1-yl)cyclopropyl)-2-methyl-5-((1-methylazetidin-2-yl)methoxy)benzamide], the IC50 was below 100 nM.
Take `COc1cc(C2(NC(=O)c3cc(OCCN(C)C)ccc3C)CC2)c2cccnc2c1` [Compound 434, 5-(2-(Dimethylamino)ethoxy)-N-(1-(7-methoxyquinolin-5-yl)cyclopropyl)-2-methylbenzamide]: the concentration for half-maximal inhibition (IC50) is below 100 nM.
Turning to `Cc1ccc(COC2CNC2)cc1C(=O)NC1(c2cccc3ccccc23)CC1` [Compound 435, 5-((Azetidin-3-yloxy)methyl)-2-methyl-N-(1-(naphthalen-1-yl)cyclopropyl)benzamide], the IC50 was in the range of 100 to 1000 nM.
On the same count and under the same terms, for `Cc1ccc(OCC2CCN2C)cc1C(=O)NC1(c2cccc3nc(Cl)ccc23)CC1` (stereo not shown) [Compound 436, N-(1-(2-Chloroquinolin-5-yl)cyclopropyl)-2-methyl-5-((1-methylazetidin-2-yl)methoxy)benzamide] the value was below 100 nM; for `Cc1ccc(OC[C@H]2C[C@@H](F)CN2C)cc1C(=O)NC1(c2cccc3ccccc23)CC1` [Compound 437, 5-(((2R,4R)-4-Fluoro-1-methylpyrrolidin-2-yl)methoxy)-2-methyl-N-(1-(naphthalen-1-yl)cyclopropyl)benzamide], below 100 nM; for `Cc1ccc(OCCN(C)C)cc1C(=O)NC1(c2cc(C#N)cc3ccccc23)CC1` [Compound 443, N-(1-(3-Cyanonaphthalen-1-yl)cyclopropyl)-5-(2-(dimethylamino)ethoxy)-2-methylbenzamide], below 100 nM.
For the compound `COc1cc(C2(NC(=O)c3cc(OCC(C)N)ccc3C)CC2)c2ccccc2c1` (stereo not shown) [Compound 445, 5-(2-Aminopropoxy)-N-(1-(3-methoxynaphthalen-1-yl)cyclopropyl)-2-methylbenzamide], the IC50 is below 100 nM.
Turning to `Cc1ccc(COC2CN(C)C2)cc1C(=O)NC1(c2cccc3ccccc23)CC1` [Compound 447, 2-Methyl-5-(((1-methylazetidin-3-yl)oxy)methyl)-N-(1-(naphthalen-1-yl)cyclopropyl)benzamide], the 50% inhibitory concentration (IC50) fell in the range of 100 to 1000 nM.
The same measure, in the same setting: for `C#CC(NC(=O)c1cc(OCC2CCN2C)ccc1C)c1cccc2ccccc12` (stereo not shown) [Compound 448, 2-Methyl-5-((1-methylazetidin-2-yl)methoxy)-N-(1-(naphthalen-1-yl)prop-2-yn-1-yl)benzamide] the value was 1000 to 5000 nM; for `Cc1ccc(CCC2CCN2)cc1C(=O)NC1(c2cccc3ccccc23)CC1` (stereo not shown) [Compound 449, 5-(2-(Azetidin-2-yl)ethyl)-2-methyl-N-(1-(naphthalen-1-yl)cyclopropyl)benzamide], below 100 nM; for `COc1cc(C2(NC(=O)c3cc(OCC4CCN4C)ccc3C)COC2)c2ccccc2c1` (stereo not shown) [Compound 450, N-(3-(3-Methoxynaphthalen-1-yl)oxetan-3-yl)-2-methyl-5-((1-methylazetidin-2-yl)methoxy)benzamide], below 100 nM.
Take `CNCCOc1ccc(C)c(C(=O)NC2(c3cccc4ccccc34)COC2)c1` [Compound 451, 2-Methyl-5-(2-(methylamino)ethoxy)-N-(3-(naphthalen-1-yl)oxetan-3-yl)benzamide]: the IC50 is below 100 nM.
For `Cc1ccc(CCC(N)=O)cc1C(=O)NC1(c2cccc3ccccc23)CC1` [Compound 452, 5-(3-Amino-3-oxopropyl)-2-methyl-N-(1-(naphthalen-1-yl)cyclopropyl)benzamide], the 50% inhibitory concentration (IC50) fell in the range of 100 to 1000 nM.
On to `CNCCOc1ccc(C)c(C(=O)NC2(c3cccc4ccccc34)CNC2)c1` [Compound 453, 2-Methyl-5-(2-(methylamino)ethoxy)-N-(3-(naphthalen-1-yl)azetidin-3-yl)benzamide], for which the IC50 was above 5000 nM.
For the compound `Cc1ccc(CCC2CCN2C)cc1C(=O)NC1(c2cccc3ccccc23)CC1` (stereo not shown) [Compound 455, 2-Methyl-5-(2-(1-methylazetidin-2-yl)ethyl)-N-(1-(naphthalen-1-yl)cyclopropyl)benzamide], the IC50 was below 100 nM.
On the same count and under the same terms, then `Cc1ccc(OCC2CCN2C)cc1C(=O)NC1(c2c(C(C)C)ccc3ccccc23)CC1` (stereo not shown) [Compound 457, N-(1-(2-Isopropylnaphthalen-1-yl)cyclopropyl)-2-methyl-5-((1-methylazetidin-2-yl)methoxy)benzamide], with 100 to 1000 nM.
The same measure, in the same setting: for `C#CC(NC(=O)c1cc(N)ccc1C)c1cccc2ccccc12` (stereo not shown) [Compound 459, 5-Amino-2-methyl-N-(1-(naphthalen-1-yl)prop-2-yn-1-yl)benzamide] the value was above 5000 nM.
Turning to `Cc1ccc(OCC2CCN2C)cc1C(=O)NC1(c2cc(Br)cc3ccccc23)CC1` (stereo not shown) [Compound 461, N-(1-(3-Bromonaphthalen-1-yl)cyclopropyl)-2-methyl-5-((1-methylazetidin-2-yl)methoxy)benzamide], the half-maximal inhibitory concentration (IC50) was below 100 nM.
On to `COc1cc(C2(NC(=O)c3cc(OC[C@@H]4CCCN4)ccc3C)CC2)c2cccnc2c1` [Compound 462, (S)-N-(1-(7-Methoxyquinolin-5-yl)cyclopropyl)-2-methyl-5-(pyrrolidin-2-ylmethoxy)benzamide], for which the IC50 was below 100 nM.
`Cc1ccc(N2CCC(N)CC2)cc1C(=O)NC1(c2cccc3ccccc23)CC1` [Compound 463, 5-(4-Aminopiperidin-1-yl)-2-methyl-N-(1-(naphthalen-1-yl)cyclopropyl)benzamide]: the IC50 was in the range of 100 to 1000 nM.
Regarding `Cc1ccc(OCC2CCN2C)cc1C(=O)NC1(c2cccc3ccc(C(=O)O)cc23)CC1` (stereo not shown) [Compound 465, 8-(1-(2-Methyl-5-((1-methylazetidin-2-yl)methoxy)benzamido)cyclopropyl)-2-naphthoic acid], the IC50 lay in the range of 1000 to 5000 nM.
Consider `COc1cc(C2(NC(=O)c3cc(OCC4CCN4C)ccc3C)CC2)c2ccc(F)cc2n1` (stereo not shown) [Compound 467, N-(1-(7-Fluoro-2-methoxyquinolin-4-yl)cyclopropyl)-2-methyl-5-((1-methylazetidin-2-yl)methoxy)benzamide], for which the IC50 was below 100 nM.
For the compound `Cc1ccc(OCC2CCN2C)cc1C(=O)NC1(c2cc(-c3cccs3)cc3ccccc23)CC1` (stereo not shown) [Compound 468, 2-Methyl-5-((1-methylazetidin-2-yl)methoxy)-N-(1-(3-(thiophen-2-yl)naphthalen-1-yl)cyclopropyl)benzamide], the IC50 is below 100 nM.
Consider `Cc1ccc(OCC(C)N)cc1C(=O)NC1(c2cc(-c3ccccc3)cc3ccccc23)CC1` (stereo not shown) [Compound 470, 5-(2-Aminopropoxy)-2-methyl-N-(1-(3-phenylnaphthalen-1-yl)cyclopropyl)benzamide], for which the IC50 is below 100 nM.
